Experimental data reported in ChEMBL document CHEMBL3991601, “The target landscape of clinical kinase drugs” (Science, 2017).
Activity calls are given as the source filed them.

Key:
[1] = target: Myosin light chain kinase, smooth muscle (Homo sapiens, UniProt Q15746)
[2] = target: Mitogen-activated protein kinase 11 (Homo sapiens, UniProt Q15759)
[3] = target: T1, Dual specificity mitogen-activated protein kinase kinase 3 (Homo sapiens, UniProt P46734)
T1 sequence (P46734 whole entry): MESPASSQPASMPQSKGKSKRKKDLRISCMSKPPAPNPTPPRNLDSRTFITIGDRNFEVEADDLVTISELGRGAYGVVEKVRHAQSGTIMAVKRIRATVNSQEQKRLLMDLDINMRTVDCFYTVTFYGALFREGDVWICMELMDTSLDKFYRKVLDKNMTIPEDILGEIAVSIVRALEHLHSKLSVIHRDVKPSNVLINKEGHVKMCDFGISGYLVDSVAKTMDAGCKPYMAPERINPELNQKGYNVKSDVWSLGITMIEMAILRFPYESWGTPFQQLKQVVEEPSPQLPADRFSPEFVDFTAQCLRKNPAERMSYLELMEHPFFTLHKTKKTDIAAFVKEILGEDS

[4] = target: Protein kinase C beta type (Homo sapiens, UniProt P05771)
Sequence of Protein kinase C beta type (P05771 whole entry): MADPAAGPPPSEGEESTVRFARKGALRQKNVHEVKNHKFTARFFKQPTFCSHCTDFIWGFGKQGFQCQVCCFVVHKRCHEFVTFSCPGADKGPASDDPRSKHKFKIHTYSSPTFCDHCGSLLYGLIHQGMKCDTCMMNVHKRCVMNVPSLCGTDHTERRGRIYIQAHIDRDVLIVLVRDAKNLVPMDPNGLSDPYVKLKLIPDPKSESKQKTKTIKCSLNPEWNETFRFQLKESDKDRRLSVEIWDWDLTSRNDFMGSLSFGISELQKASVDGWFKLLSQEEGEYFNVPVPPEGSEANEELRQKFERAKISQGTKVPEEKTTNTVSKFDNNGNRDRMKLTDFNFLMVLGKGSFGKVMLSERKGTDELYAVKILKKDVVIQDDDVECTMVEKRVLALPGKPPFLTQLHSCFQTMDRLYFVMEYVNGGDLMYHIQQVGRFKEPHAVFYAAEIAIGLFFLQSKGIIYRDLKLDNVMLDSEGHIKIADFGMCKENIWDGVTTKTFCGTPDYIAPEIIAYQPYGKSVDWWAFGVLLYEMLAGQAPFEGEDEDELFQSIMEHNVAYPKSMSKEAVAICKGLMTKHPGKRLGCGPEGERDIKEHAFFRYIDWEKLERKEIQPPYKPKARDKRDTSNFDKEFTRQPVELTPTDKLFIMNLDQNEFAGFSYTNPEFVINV

[5] = target: T2, Mitogen-activated protein kinase kinase kinase 3 (Homo sapiens, UniProt Q99759)
T2 sequence (Q99759 whole entry): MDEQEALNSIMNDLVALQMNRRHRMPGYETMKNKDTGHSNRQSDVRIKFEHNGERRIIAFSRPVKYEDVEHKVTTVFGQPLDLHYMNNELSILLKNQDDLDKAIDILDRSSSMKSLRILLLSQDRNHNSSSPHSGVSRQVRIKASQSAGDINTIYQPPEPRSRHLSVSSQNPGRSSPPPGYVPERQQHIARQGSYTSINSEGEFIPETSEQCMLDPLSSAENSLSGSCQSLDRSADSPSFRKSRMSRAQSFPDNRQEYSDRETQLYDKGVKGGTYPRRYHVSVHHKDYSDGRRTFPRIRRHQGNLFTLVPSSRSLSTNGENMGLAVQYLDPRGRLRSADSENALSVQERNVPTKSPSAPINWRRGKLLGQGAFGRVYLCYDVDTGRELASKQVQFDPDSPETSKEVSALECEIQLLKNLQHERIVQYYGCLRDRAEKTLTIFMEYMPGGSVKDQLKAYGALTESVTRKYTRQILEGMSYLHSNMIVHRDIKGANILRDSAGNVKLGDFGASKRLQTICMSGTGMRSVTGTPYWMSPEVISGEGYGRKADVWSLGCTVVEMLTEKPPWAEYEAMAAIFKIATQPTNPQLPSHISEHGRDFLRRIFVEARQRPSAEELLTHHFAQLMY

[6] = target: Activated CDC42 kinase 1 (Homo sapiens, UniProt Q07912)
Sequence of Activated CDC42 kinase 1 (Q07912 whole entry): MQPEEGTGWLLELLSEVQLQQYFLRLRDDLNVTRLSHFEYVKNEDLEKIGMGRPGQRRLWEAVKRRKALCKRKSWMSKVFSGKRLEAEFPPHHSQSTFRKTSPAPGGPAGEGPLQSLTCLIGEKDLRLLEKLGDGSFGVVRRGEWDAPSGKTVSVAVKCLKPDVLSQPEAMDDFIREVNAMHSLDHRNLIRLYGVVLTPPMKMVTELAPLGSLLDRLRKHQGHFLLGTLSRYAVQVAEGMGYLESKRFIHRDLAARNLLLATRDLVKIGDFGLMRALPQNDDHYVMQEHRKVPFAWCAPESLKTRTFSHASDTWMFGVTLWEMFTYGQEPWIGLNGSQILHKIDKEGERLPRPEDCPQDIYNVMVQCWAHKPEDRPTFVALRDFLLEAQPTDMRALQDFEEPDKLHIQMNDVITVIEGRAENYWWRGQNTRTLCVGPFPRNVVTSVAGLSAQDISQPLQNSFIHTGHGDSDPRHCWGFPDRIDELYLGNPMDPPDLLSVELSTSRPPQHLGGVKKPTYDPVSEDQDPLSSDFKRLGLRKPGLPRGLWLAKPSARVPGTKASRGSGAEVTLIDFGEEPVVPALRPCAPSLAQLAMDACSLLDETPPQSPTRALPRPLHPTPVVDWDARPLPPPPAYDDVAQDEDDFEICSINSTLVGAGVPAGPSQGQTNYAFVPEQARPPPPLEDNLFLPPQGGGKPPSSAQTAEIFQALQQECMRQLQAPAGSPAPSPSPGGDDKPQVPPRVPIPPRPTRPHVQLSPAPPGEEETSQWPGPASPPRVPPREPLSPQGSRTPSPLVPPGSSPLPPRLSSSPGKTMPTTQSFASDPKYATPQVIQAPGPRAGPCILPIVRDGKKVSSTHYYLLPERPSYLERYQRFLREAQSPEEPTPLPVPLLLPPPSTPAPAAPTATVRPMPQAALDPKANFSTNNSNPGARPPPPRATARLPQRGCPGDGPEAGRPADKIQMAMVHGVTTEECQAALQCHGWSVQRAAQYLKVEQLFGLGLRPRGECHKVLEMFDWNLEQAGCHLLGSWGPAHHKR

[7] = target: T3, Serine/threonine-protein kinase Nek3 (Homo sapiens, UniProt P51956)
T3 sequence (P51956 whole entry): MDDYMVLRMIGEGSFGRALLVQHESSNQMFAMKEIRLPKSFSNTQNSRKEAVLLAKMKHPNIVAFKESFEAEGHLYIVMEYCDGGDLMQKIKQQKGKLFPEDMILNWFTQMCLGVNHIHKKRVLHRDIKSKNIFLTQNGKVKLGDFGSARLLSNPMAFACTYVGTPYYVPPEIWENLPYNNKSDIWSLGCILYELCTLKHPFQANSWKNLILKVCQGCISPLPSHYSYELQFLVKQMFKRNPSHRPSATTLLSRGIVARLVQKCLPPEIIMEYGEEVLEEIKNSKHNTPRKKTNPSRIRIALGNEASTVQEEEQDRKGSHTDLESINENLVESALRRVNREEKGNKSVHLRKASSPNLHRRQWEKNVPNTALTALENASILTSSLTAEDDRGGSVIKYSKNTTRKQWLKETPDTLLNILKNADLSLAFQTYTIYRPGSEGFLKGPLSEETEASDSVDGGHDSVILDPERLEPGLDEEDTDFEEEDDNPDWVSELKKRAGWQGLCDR

[8] = target: Serine/threonine-protein kinase PAK 2 (Homo sapiens, UniProt Q13177)
Sequence of Serine/threonine-protein kinase PAK 2 (Q13177 whole entry): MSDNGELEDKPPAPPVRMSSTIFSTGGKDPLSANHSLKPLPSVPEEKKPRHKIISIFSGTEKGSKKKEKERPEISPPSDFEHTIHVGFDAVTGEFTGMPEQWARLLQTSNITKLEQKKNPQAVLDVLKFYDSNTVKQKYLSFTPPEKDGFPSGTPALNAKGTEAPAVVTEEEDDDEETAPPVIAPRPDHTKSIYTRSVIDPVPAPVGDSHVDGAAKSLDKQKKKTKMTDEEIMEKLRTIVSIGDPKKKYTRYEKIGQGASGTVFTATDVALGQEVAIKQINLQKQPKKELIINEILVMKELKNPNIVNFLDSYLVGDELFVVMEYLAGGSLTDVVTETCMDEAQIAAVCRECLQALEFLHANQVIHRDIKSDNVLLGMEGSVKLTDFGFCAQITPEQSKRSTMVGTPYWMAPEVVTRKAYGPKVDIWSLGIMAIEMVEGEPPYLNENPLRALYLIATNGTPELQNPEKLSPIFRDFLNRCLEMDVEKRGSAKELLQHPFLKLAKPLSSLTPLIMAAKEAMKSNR
Also: in the data inactive means no Kd found up to 30 µM.

Sequence of Mitogen-activated protein kinase 11 (Q15759 whole entry): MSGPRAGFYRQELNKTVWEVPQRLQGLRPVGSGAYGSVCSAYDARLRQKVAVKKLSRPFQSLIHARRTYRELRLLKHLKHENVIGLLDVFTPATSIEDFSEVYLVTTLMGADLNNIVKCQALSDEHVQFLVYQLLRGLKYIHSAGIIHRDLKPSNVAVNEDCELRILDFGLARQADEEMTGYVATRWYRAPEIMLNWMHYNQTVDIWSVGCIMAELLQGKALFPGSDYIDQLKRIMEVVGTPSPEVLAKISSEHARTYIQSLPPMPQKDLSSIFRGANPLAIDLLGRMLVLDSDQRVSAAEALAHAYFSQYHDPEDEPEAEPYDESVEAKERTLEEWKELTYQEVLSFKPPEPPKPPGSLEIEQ
Sequence of Myosin light chain kinase, smooth muscle (Q15746 whole entry): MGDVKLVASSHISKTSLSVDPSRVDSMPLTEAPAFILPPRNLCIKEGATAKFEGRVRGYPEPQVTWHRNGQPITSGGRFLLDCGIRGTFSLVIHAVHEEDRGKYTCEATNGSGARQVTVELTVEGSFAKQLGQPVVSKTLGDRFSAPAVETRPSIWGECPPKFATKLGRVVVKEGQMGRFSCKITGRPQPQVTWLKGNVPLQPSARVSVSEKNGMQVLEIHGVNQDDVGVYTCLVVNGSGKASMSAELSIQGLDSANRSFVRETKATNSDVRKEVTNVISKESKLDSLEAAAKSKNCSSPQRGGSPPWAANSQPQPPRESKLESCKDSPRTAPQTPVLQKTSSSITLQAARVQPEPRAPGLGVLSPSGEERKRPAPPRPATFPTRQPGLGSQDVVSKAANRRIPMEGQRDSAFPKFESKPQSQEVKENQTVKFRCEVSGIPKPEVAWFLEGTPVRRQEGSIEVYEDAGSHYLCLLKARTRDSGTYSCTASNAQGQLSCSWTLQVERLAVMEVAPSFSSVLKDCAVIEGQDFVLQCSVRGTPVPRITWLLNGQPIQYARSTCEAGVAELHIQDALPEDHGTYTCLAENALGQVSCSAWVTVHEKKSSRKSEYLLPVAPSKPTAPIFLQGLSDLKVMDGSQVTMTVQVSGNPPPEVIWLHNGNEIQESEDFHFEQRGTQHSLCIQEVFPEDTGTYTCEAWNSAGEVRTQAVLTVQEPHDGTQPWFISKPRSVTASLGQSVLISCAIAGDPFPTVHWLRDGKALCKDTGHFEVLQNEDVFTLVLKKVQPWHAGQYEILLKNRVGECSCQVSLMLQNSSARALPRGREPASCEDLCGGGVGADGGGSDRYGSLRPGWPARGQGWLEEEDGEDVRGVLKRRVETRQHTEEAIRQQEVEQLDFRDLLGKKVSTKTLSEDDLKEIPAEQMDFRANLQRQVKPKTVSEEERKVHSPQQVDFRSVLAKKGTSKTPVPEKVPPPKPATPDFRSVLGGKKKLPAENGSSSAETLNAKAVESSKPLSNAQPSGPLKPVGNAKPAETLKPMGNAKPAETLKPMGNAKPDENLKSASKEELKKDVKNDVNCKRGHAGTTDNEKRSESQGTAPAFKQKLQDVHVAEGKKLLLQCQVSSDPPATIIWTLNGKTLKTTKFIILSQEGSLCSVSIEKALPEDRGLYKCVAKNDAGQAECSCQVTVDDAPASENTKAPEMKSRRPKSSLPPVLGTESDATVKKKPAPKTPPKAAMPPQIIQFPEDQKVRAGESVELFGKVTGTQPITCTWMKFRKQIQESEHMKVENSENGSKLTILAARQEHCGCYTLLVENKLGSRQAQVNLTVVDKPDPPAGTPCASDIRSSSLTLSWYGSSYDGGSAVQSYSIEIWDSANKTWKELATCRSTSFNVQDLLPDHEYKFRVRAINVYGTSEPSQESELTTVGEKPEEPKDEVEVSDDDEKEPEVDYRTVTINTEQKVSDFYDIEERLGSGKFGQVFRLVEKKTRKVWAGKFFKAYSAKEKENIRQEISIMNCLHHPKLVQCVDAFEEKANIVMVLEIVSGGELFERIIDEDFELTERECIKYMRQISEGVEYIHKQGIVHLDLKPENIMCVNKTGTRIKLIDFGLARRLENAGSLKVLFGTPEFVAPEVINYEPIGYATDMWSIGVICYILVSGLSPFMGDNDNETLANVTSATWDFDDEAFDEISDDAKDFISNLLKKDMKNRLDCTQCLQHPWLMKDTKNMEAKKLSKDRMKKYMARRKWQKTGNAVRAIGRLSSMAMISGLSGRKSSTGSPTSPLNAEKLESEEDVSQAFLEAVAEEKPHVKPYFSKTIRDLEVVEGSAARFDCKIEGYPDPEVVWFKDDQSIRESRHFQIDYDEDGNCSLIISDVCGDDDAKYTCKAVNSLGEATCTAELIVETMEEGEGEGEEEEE

Compound	Kd [1]	Kd [2]	Kd [3]	Kd [4]	Kd [5]	Kd [6]	Kd [7]	Kd [8]
O=c1[nH]c([C@@H]2CCCN2)nc2c1oc1ccc(Cl)cc12	> 30 µM (inactive)	> 30 µM (inactive)	> 30 µM (inactive)	> 30 µM (inactive)	> 30 µM (inactive)	> 30 µM (inactive)	> 30 µM (inactive)	> 30 µM (inactive)
Cn1cc(-c2[nH]c3cc(NC(=O)[C@H](N)C4CCCCC4)cc4c3c2C=NNC4=O)cn1	> 30 µM (inactive)	> 30 µM (inactive)	> 30 µM (inactive)	> 30 µM (inactive)	> 30 µM (inactive)	> 30 µM (inactive)	> 30 µM (inactive)	> 30 µM (inactive)
CCN1CCN(Cc2ccc(Nc3ncc(F)c(-c4cc(F)c5nc(C)n(C(C)C)c5c4)n3)nc2)CC1 [ABEMACICLIB]	> 30 µM (inactive)	> 30 µM (inactive)	> 30 µM (inactive)	1.62 µM (active)	> 30 µM (inactive)	> 30 µM (inactive)	> 30 µM (inactive)	> 30 µM (inactive)
Cc1c(NC(=O)OC[C@@H]2COCCN2)cn2ncnc(Nc3ccc4c(cnn4Cc4cccc(F)c4)c3)c12 [AC-480]	> 30 µM (inactive)	> 30 µM (inactive)	> 30 µM (inactive)	> 30 µM (inactive)	> 30 µM (inactive)	> 30 µM (inactive)	> 30 µM (inactive)	–
C=CCn1c(=O)c2cnc(Nc3ccc(N4CCN(C)CC4)cc3)nc2n1-c1cccc(C(C)(C)O)n1 [ADAVOSERTIB]	> 30 µM (inactive)	> 30 µM (inactive)	> 30 µM (inactive)	> 30 µM (inactive)	> 30 µM (inactive)	–	0.837 µM (active)	> 30 µM (inactive)
CN(C)C/C=C/C(=O)Nc1cc2c(Nc3ccc(F)c(Cl)c3)ncnc2cc1O[C@H]1CCOC1 [AFATINIB]	–	–	–	> 30 µM (inactive)	–	–	–	–
CCN(CCCOc1ccc2c(Nc3cc(CC(=O)Nc4cccc(F)c4)n[nH]3)ncnc2c1)CCOP(=O)(O)O [BARASERTIB]	> 30 µM (inactive)	> 30 µM (inactive)	> 30 µM (inactive)	> 30 µM (inactive)	> 30 µM (inactive)	–	> 30 µM (inactive)	> 30 µM (inactive)
C[C@@]1(C(=O)Nc2ccc(F)nc2)CCCN1c1nc(Nc2cc(C3CC3)n[nH]2)c2cccn2n1 [BMS-754807]	–	–	–	> 30 µM (inactive)	–	–	–	–
CCOc1ccn(-c2ccc(F)cc2)c(=O)c1C(=O)Nc1ccc(Oc2ccnc(N)c2Cl)c(F)c1 [BMS-777607]	> 30 µM (inactive)	> 30 µM (inactive)	–	> 30 µM (inactive)	> 30 µM (inactive)	> 30 µM (inactive)	> 30 µM (inactive)	> 30 µM (inactive)
COc1cc2c(Oc3ccc4[nH]c(C)cc4c3F)ncnc2cc1OCCCN1CCCC1 [CEDIRANIB]	–	–	–	> 30 µM (inactive)	–	–	–	–
COc1cc2ncnc(Nc3ccc(F)c(Cl)c3)c2cc1NC(=O)/C=C/CN1CCCCC1 [DACOMITINIB ANHYDROUS]	> 30 µM (inactive)	> 30 µM (inactive)	> 30 µM (inactive)	> 30 µM (inactive)	> 30 µM (inactive)	> 30 µM (inactive)	> 30 µM (inactive)	–
Cn1c(=O)n(-c2ccc(C(C)(C)C#N)cc2)c2c3cc(-c4cnc5ccccc5c4)ccc3ncc21 [DACTOLISIB]	> 30 µM (inactive)	> 30 µM (inactive)	> 30 µM (inactive)	> 30 µM (inactive)	> 30 µM (inactive)	–	> 30 µM (inactive)	> 30 µM (inactive)
CC[C@@](C)(Nc1ccnc(-c2c[nH]c3ncccc23)n1)C(=O)NCC(F)(F)F [DECERNOTINIB]	> 30 µM (inactive)	> 30 µM (inactive)	–	0.426 µM (active)	> 30 µM (inactive)	> 30 µM (inactive)	> 30 µM (inactive)	> 30 µM (inactive)
O=S(=O)(c1cccc2cnccc12)N1CCCNCC1 [FASUDIL]	> 30 µM (inactive)	> 30 µM (inactive)	> 30 µM (inactive)	> 30 µM (inactive)	> 30 µM (inactive)	–	> 30 µM (inactive)	> 30 µM (inactive)
CCc1nc(C(N)=O)c(Nc2ccc(N3CCC(N4CCN(C)CC4)CC3)c(OC)c2)nc1NC1CCOCC1 [GILTERITINIB]	0.188 µM (active)	> 30 µM (inactive)	> 30 µM (inactive)	> 30 µM (inactive)	> 30 µM (inactive)	3.15 µM (active)	2.84 µM (active)	–
Cc1c(Cn2c(C)nc3c(C(=O)O)cc(N4CCOCC4)cc32)cccc1C(F)(F)F [GSK-2636771]	> 30 µM (inactive)	> 30 µM (inactive)	> 30 µM (inactive)	> 30 µM (inactive)	> 30 µM (inactive)	> 30 µM (inactive)	> 30 µM (inactive)	–
C[C@]1(O)C[C@@H](c2nc(-c3ccc4ccc(-c5ccccc5)nc4c3)c3c(N)nccn32)C1 [LINSITINIB]	> 30 µM (inactive)	0.01 µM	> 30 µM (inactive)	> 30 µM (inactive)	> 30 µM (inactive)	> 30 µM (inactive)	> 30 µM (inactive)	–
N#CCNC(=O)c1ccc(-c2ccnc(Nc3ccc(N4CCOCC4)cc3)n2)cc1 [MOMELOTINIB]	> 30 µM (inactive)	–	> 30 µM (inactive)	> 30 µM (inactive)	> 30 µM (inactive)	> 30 µM (inactive)	0.286 µM (active)	> 30 µM (inactive)
CC1(C)CNc2cc(NC(=O)c3cccnc3NCc3ccncc3)ccc21 [MOTESANIB]	–	–	–	> 30 µM (inactive)	–	–	–	–
O=C(Nc1ccc(OC(F)(F)F)cc1)c1sccc1NCc1ccnc2ccccc12 [OSI-930]	> 30 µM (inactive)	> 30 µM (inactive)	> 30 µM (inactive)	> 30 µM (inactive)	> 30 µM (inactive)	> 30 µM (inactive)	> 30 µM (inactive)	–
FC(F)(F)c1ccc(CNc2ccc(Cc3c[nH]c4ncc(Cl)cc34)cn2)cn1 [PEXIDARTINIB]	> 30 µM (inactive)	> 30 µM (inactive)	> 30 µM (inactive)	> 30 µM (inactive)	> 30 µM (inactive)	> 30 µM (inactive)	> 30 µM (inactive)	–
CN(c1ncccc1CNc1nc(Nc2ccc3c(c2)CC(=O)N3)ncc1C(F)(F)F)S(C)(=O)=O [PF-00562271]	> 30 µM (inactive)	> 30 µM (inactive)	> 30 µM (inactive)	> 30 µM (inactive)	> 30 µM (inactive)	–	> 30 µM (inactive)	> 30 µM (inactive)
C=CC(=O)Nc1cccc(Nc2nc(Nc3ccc(N4CCN(C(C)=O)CC4)cc3OC)ncc2C(F)(F)F)c1 [ROCILETINIB]	> 30 µM (inactive)	–	> 30 µM (inactive)	> 30 µM (inactive)	> 30 µM (inactive)	> 30 µM (inactive)	> 30 µM (inactive)	> 30 µM (inactive)
Cn1cnc2c(F)c(Nc3ccc(Br)cc3Cl)c(C(=O)NOCCO)cc21 [SELUMETINIB]	–	–	–	> 30 µM (inactive)	–	–	–	–
CN1CCN(c2nc(C3=C(c4c[nH]c5ccccc45)C(=O)NC3=O)c3ccccc3n2)CC1 [SOTRASTAURIN]	> 30 µM (inactive)	> 30 µM (inactive)	> 30 µM (inactive)	–	> 30 µM (inactive)	> 30 µM (inactive)	> 30 µM (inactive)	> 30 µM (inactive)
COc1cc2c(N3CCN(C(=O)Nc4ccc(OC(C)C)cc4)CC3)ncnc2cc1OCCCN1CCCCC1 [TANDUTINIB]	–	–	–	> 30 µM (inactive)	–	–	–	–
NC(=O)c1ccc(N(C(N)=O)c2c(F)cccc2F)nc1-c1ccc(F)cc1F [VX-702]	0.003 µM	–	> 30 µM (inactive)	> 30 µM (inactive)	> 30 µM (inactive)	> 30 µM (inactive)	> 30 µM (inactive)	–
